In brackets after ≈: the same amount, converted by molar mass. Several values for one entry are separate records, joined by “and”; a condition that tells them apart may be missing. Identical values can stand only once. Like-named read-outs stand apart in the source and are kept apart here. Where a SMILES comes first, the peptide text is derived from it. Where no end group is shown, it is not given here. [ ]: non-standard residue; d: D form. The star is where a group is joined. Trp(2-Pmc) = Cc1c(C)c(S(=O)(=O)c2[nH]c3ccccc3c2C[C@H](N)C(=O)O)c(C)c2c1OC(C)(C)CC2; Bip = N[C@@H](Cc1ccc(-c2ccccc2)cc1)C(=O)O; OBn = c1ccc(CO*)cc1
How the values were obtained:
[1] = test system: Escherichia coli ATCC 25922
[2] = test system: Staphylococcus aureus ATCC 25923
[3] = test system: MRSE ATCC 27626; details: ATCC 27626

| Molecule | MIC E. coli ([1]; ATCC 25922) [µg/mL] | MIC E. coli ([1]; Table 8, second column) | MIC S. aureus ([2]; ATCC 25923) [µg/mL] | MIC S. aureus ([2]; Table 8, second column) | MIC MRSE [3] [µg/mL] | MIC E. coli ([1]; Table 8, first column) [µg/mL] | MIC S. aureus ([2]; Table 8, first column) [µg/mL] | Minimum inhibitory concentration E. coli ([1]; ATCC 25922) [µg/mL] | Minimum inhibitory concentration S. aureus ([2]; ATCC 25923) [µg/mL] |
| --- | --- | --- | --- | --- | --- | --- | --- | --- | --- |
| N=C(N)NCCC[C@H](NC(=O)[C@H](CCCNC(=N)N)NC(=O)[C@H](Cc1ccc(-c2ccccc2)cc1)NC(=O)[C@@H](N)Cc1ccc(-c2ccccc2)cc1)C(N)=O [BBRR-NH2] (H-[Bip][Bip]RR-NH2; N-terminus assumed) | 50 (≈ 64.4 µM) | 64.4 μM/ml | 5 (≈ 6.44 µM) | 6.4 μM/ml |  |  |  |  |  |
| NCCCC[C@H](N)CN[C@@H](Cc1c[nH]c2ccccc12)C(=O)OCc1ccccc1 [Kψ(CH2NH)WOBzl] |  |  |  |  |  |  |  | >300 | 300 (≈ 734 µM) |
| C[C@H](NC(=O)[C@H](C)NC(=O)[C@H](CCCNC(=N)N)NC(=O)[C@@H](N)CCCNC(=N)N)C(=O)N[C@@H](Cc1c[nH]c2ccccc12)C(=O)N[C@@H](Cc1c[nH]c2ccccc12)C(N)=O [RRAAWW-NH2] (H-RRAAWW-NH2; N-terminus assumed) | >200 | 237.0 μM/ml | >200 | 237.0 μM/ml |  |  |  |  |  |
| N=C(N)NCCC[C@H](N)C(=O)N[C@@H](Cc1c[nH]c2ccccc12)C(=O)N[C@H](CCCNC(=N)N)C(=O)N[C@H](Cc1c[nH]c2ccccc12)C(=O)OCc1ccccc1 [RWrw-OBzl] (H-RW[dR][dW]-OBn) |  |  | 5 (≈ 6.31 µM) |  | 2.5 (≈ 3.15 µM) |  |  |  |  |
| N=C(N)NCCC[C@H](NC(=O)[C@H](CCCNC(=N)N)NC(=O)[C@H](Cc1ccc(-c2ccccc2)cc1)NC(=O)[C@@H](N)Cc1c[nH]c2ccccc12)C(N)=O [WBRR-NH2] (H-W[Bip]RR-NH2; N-terminus assumed) | >100 | 135.3 μM/ml | 20 (≈ 27.1 µM) | 27.1 μM/ml |  |  |  |  |  |
| C[C@H](NC(=O)[C@H](C)NC(=O)[C@H](CCCNC(=N)N)NC(=O)[C@@H](N)Cc1c[nH]c2ccccc12)C(=O)N[C@@H](Cc1c[nH]c2ccccc12)C(=O)N[C@@H](CCCNC(=N)N)C(N)=O [WRAAWR-NH2] (H-WRAAWR-NH2; N-terminus assumed) | >200 | 237.0 μM/ml | >200 | 237.0 μM/ml |  |  |  |  |  |
| Cc1c(C)c(S(=O)(=O)c2[nH]c3ccccc3c2C[C@H](N)C(=O)N[C@@H](CCCNC(=N)N)C(=O)N[C@@H](Cc2ccc(-c3ccccc3)cc2)C(=O)N[C@@H](CCCNC(=N)N)C(=O)N[C@@H](C)C(=O)N[C@@H](C)C(N)=O)c(C)c2c1OC(C)(C)CC2 [WRBRAA-NH2 Pmc+] (H-[Trp(2-Pmc)]R[Bip]RAA-NH2; N-terminus assumed) |  | 13.1 μM/ml |  | 4.4 μM/ml |  |  |  |  |  |
| C[C@H](NC(=O)[C@H](C)NC(=O)[C@H](CCCNC(=N)N)NC(=O)[C@H](Cc1ccc(-c2ccccc2)cc1)NC(=O)[C@H](CCCNC(=N)N)NC(=O)[C@@H](N)Cc1c[nH]c2ccccc12)C(N)=O [WRBRAA-NH2] (H-WR[Bip]RAA-NH2; N-terminus assumed) | 150 (≈ 170 µM) | 170.2 μM/ml | 35 (≈ 39.7 µM) | 39.7 μM/ml |  |  |  |  |  |
| N=C(N)NCCC[C@@H](N)C(=O)N[C@H](Cc1c[nH]c2ccccc12)C(=O)OCc1ccccc1 [rw-OBzl] (H-[dR]-[dW]-OBn) | >200 |  |  |  | 20 (≈ 44.4 µM) |  |  |  |  |
| N=C(N)NCCC[C@H](NC(=O)[C@H](N)Cc1c[nH]c2ccccc12)C(=O)N[C@@H](Cc1c[nH]c2ccccc12)C(=O)OCc1ccccc1 [wRW-OBzl] (H-[dW]-Arg-Trp-OBn) |  |  | 20 (≈ 31.4 µM) |  | 10 (≈ 15.7 µM) |  |  |  |  |
| WWAARR-NH2 Pmc+: hexapeptide amide having the Pmc group (also: Pmc group, position not given here) |  | 45.0 μM/ml |  | 4.5 μM/ml |  | 50 | 5 |  |  |

Further lines, with some results ahead:

| MIC E. coli ([1]; ATCC 25922) [µg/mL] | MIC E. coli ([1]; Table 8, second column) | MIC S. aureus ([2]; ATCC 25923) [µg/mL] | MIC S. aureus ([2]; Table 8, second column) | MIC MRSE [3] [µg/mL] | MIC E. coli ([1]; Table 8, first column) [µg/mL] | MIC S. aureus ([2]; Table 8, first column) [µg/mL] | Molecule | Minimum inhibitory concentration E. coli ([1]; ATCC 25922) [µg/mL] | Minimum inhibitory concentration S. aureus ([2]; ATCC 25923) [µg/mL] |
| --- | --- | --- | --- | --- | --- | --- | --- | --- | --- |
| 75 (≈ 81.7 µM) | 81.7 μM/ml | 5 (≈ 5.45 µM) | 5.4 μM/ml |  |  |  | C[C@H](NC(=O)[C@H](C)NC(=O)[C@H](CCCNC(=N)N)NC(=O)[C@H](CCCNC(=N)N)NC(=O)[C@H](Cc1ccc(-c2ccccc2)cc1)NC(=O)[C@@H](N)Cc1ccc(-c2ccccc2)cc1)C(N)=O [BBRRAA-NH2] (H-[Bip][Bip]RRAA-NH2; N-terminus assumed) |  |  |
| 150 to 300 |  | 10 (≈ 11.4 µM) | 11.3 μM/ml |  |  |  | C[C@H](NC(=O)[C@H](C)NC(=O)[C@H](CCCNC(=N)N)NC(=O)[C@@H](N)CCCNC(=N)N)C(=O)N[C@@H](Cc1c[nH]c2ccccc12)C(=O)N[C@@H](Cc1ccc(-c2ccccc2)cc1)C(N)=O [RRAAWB-NH2] (H-RRAAW[Bip]-NH2; N-terminus assumed) |  |  |
| 100 (≈ 126 µM) |  |  |  | 2.5 (≈ 3.15 µM) |  |  | N=C(N)NCCC[C@H](NC(=O)[C@H](Cc1c[nH]c2ccccc12)NC(=O)[C@@H](N)CCCNC(=N)N)C(=O)N[C@@H](Cc1c[nH]c2ccccc12)C(=O)OCc1ccccc1 [RWRW-OBzl] (H-RWRW-OBn) |  |  |
| >300 | 340.5 μM/ml | 35 (≈ 39.7 µM) | 39.7 μM/ml |  |  |  | C[C@H](NC(=O)[C@H](C)NC(=O)[C@H](Cc1ccc(-c2ccccc2)cc1)NC(=O)[C@@H](N)Cc1c[nH]c2ccccc12)C(=O)N[C@@H](CCCNC(=N)N)C(=O)N[C@@H](CCCNC(=N)N)C(N)=O [WBAARR-NH2] (H-W[Bip]AARR-NH2; N-terminus assumed) |  |  |
| >100 | 99.5 μM/ml | 5 to 10 | 5.0-9.9 μM/ml |  |  |  | Cc1c(C)c(S(=O)(=O)c2[nH]c3ccccc3c2C[C@H](N)C(=O)N[C@@H](Cc2ccc(-c3ccccc3)cc2)C(=O)N[C@@H](CCCNC(=N)N)C(=O)N[C@@H](CCCNC(=N)N)C(N)=O)c(C)c2c1OC(C)(C)CC2 [WBRR-NH2 Pmc+] (H-[Trp(2-Pmc)][Bip]RR-NH2; N-terminus assumed) |  |  |
| >300 | 340.5 μM/ml | 75 (≈ 85.1 µM) | 85.1 μM/ml |  |  |  | C[C@H](NC(=O)[C@H](C)NC(=O)[C@H](CCCNC(=N)N)NC(=O)[C@H](CCCNC(=N)N)NC(=O)[C@H](Cc1ccc(-c2ccccc2)cc1)NC(=O)[C@@H](N)Cc1c[nH]c2ccccc12)C(N)=O [WBRRAA-NH2] (H-W[Bip]RRAA-NH2; N-terminus assumed) |  |  |
| 150 (≈ 170 µM) | 170.2 μM/ml | 35 (≈ 39.7 µM) | 39.7 μM/ml |  |  |  | C[C@H](NC(=O)[C@H](C)NC(=O)[C@H](CCCNC(=N)N)NC(=O)[C@@H](N)Cc1c[nH]c2ccccc12)C(=O)N[C@@H](Cc1ccc(-c2ccccc2)cc1)C(=O)N[C@@H](CCCNC(=N)N)C(N)=O [WRAABR-NH2] (H-WRAA[Bip]R-NH2; N-terminus assumed) |  |  |
| >200 | 237.0 μM/ml | >200 | 237.0 μM/ml |  |  |  | C[C@H](NC(=O)[C@H](C)NC(=O)[C@H](Cc1c[nH]c2ccccc12)NC(=O)[C@@H](N)Cc1c[nH]c2ccccc12)C(=O)N[C@@H](CCCNC(=N)N)C(=O)N[C@@H](CCCNC(=N)N)C(N)=O [WWAARR-NH2] (H-WWAARR-NH2; N-terminus assumed) |  |  |
| >300 |  | 100 (≈ 237 µM) |  |  |  |  | NCCCC[C@@H](N)C(=O)N[C@@H](Cc1c[nH]c2ccccc12)C(=O)OCc1ccccc1 [kW-OBzl] (H-[dK]-Trp-OBn) | >300 | 100 (≈ 237 µM) |
|  |  |  |  | 5 (≈ 7.85 µM) |  |  | N=C(N)NCCC[C@@H](NC(=O)[C@H](N)Cc1c[nH]c2ccccc12)C(=O)N[C@H](Cc1c[nH]c2ccccc12)C(=O)OCc1ccccc1 [wrw-OBzl] (H-[dW]-[dR]-[dW]-OBn) |  |  |
|  | 18.0 μM/ml |  | 2.3 μM/ml |  | 20 | 2.5 | AAWWRR-NH2 Pmc+: hexapeptide amide having the Pmc group (also: Pmc group, position not given here) |  |  |
|  | 18.0 μM/ml |  | 2.3 μM/ml |  | 20 | 2.5 | AWRWRA-NH2 Pmc+: hexapeptide amide having the Pmc group (also: Pmc group, position not given here) |  |  |
|  | 17.4 μM/ml and 18.0 μM/ml |  | 2.2 μM/ml and 2.3 μM/ml |  | 20 | 2.5 | RRAAWW-NH2 Pmc+: hexapeptide amide having the Pmc group; label printed twice, second probably RRAAWB (also: Pmc group, position not given here) |  |  |
|  | 45.0 μM/ml |  | 2.3 μM/ml |  | 50 | 2.5 | WRAAWR-NH2 Pmc+: hexapeptide amide having the Pmc group (also: Pmc group, position not given here) |  |  |
